Read-outs that look alike come from different tables or passages of the source.
Target: T1, human B-Raf (Homo sapiens, UniProt P15056)
T1 construct: Flag; GST; made in house; host or cells: Sf9 insect cells (B-Raf); E. coli (MEK1-GST)
Experiment: B-Raf Kinase to MEK1 ELISA
Assay type: biochemical
Conditions: for inhibition at 10 µM: read-out: % Inhib./10 uM
Method in brief: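 Flag/GST-tagged human B-Raf (Sf9, ~20 ng/point) phosphorylates non-active GST-MEK1 (50 nM final) with ATP and MgCl2 in MOPS pH 7.2 buffer, 60 min at RT. Product is captured on anti-GST plates; MEK1 pSer217/221 is read by phospho-antibody plus europium conjugate (DELFIA).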

[1] = median, cpd concentrations from 10 μM to 30 nM in half log dilutions, read-out: Median IC50

T1 sequence (P15056 whole entry): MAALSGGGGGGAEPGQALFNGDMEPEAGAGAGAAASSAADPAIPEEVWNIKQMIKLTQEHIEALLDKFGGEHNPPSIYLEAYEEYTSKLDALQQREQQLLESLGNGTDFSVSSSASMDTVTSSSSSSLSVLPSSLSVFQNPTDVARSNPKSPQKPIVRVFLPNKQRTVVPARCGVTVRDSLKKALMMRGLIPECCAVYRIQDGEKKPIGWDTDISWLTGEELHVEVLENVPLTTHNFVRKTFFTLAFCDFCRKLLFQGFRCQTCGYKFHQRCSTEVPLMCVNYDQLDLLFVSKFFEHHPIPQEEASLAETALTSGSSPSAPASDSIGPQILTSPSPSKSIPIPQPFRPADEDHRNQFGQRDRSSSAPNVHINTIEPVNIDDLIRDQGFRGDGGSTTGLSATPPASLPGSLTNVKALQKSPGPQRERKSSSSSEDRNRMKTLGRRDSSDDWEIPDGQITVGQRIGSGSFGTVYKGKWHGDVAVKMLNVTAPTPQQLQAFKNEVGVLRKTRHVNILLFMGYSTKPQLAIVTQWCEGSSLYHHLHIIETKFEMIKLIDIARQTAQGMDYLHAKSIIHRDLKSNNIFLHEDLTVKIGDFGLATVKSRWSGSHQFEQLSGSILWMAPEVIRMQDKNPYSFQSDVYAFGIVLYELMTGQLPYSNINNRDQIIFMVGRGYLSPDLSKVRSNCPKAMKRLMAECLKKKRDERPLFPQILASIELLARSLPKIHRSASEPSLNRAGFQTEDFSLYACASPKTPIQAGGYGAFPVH

Molecule	IC50 [1] [nM]	inhibition at 10 µM [%]	IC50 [nM]	inhibition at 10 µM (single point assay, 10 uM) [%]	% Inhib./10 uM (single point assay, 10 uM) [%]
CCOC(=O)c1cnn2c(-c3cccc(NC(=O)Nc4cc(OC)cc(C(F)(F)F)c4)c3)ccnc12 [Example 77, ethyl 7-{3-[({[3-methoxy-5-(trifluoromethyl)phenyl]amino}carbonyl)amino]phenyl}pyrazolo[1,5-a]pyrimidine-3-carboxylate]	990	72			
CN(C)CCNC(=O)c1cnn2c(-c3cccc(NC(=O)c4cccc(C(F)(F)F)c4)c3)ccnc12 [Example 49, N-[2-(dimethylamino)ethyl]-7-(3-{[3-(trifluoromethyl)benzoyl]amino}phenyl)pyrazolo[1,5-a]pyrimidine-3-carboxamide]	5940	62			
O=C(Nc1cccc(-c2ccnc3c(C(=O)NCCN4CCOCC4)cnn23)c1)Nc1ccc(Cl)c(C(F)(F)F)c1 [Example 123, 7-{3-[({[4-chloro-3-(trifluoromethyl)phenyl]amino}carbonyl)amino]phenyl}-N-(2-morpholin-4-ylethyl)pyrazolo[1,5-a]pyrimidine-3-carboxamide]		93	120		
CCOC(=O)c1cnn2c(-c3cccc(NC(=O)c4ccc(-c5cc(C(F)(F)F)nn5C)s4)c3)ccnc12 [Example 224, ethyl7-{3-[({5-[1-methyl-3-(trifluoromethyl)-1H-pyrazol-5-yl]-2-thienyl}carbonyl)amino]phenyl}pyrazolo[1,5-a]pyrimidine-3-carboxylate]	> 10000	39			
CCOC(=O)c1cnn2c(-c3cc(NC(=O)c4ccc(C)c(C(F)(F)F)c4)ccc3[N+](=O)[O-])ccnc12 [Example 105, ethyl 7-(5-{[4-methyl-3-(trifluoromethyl)benzoyl]amino}-2-nitrophenyl)pyrazolo[1,5-a]pyrimidine-3-carboxylate]	> 10000	37			
CC(C)(C)c1cc2nccc(-c3cccc(NC(=O)c4cccc(C(F)(F)F)c4)c3)n2n1 [Example 138, N-[3-(2-tert-butylpyrazolo[1,5-a]pyrimidin-7-yl)phenyl]-3-(trifluoromethyl)benzamide]	> 10000	46			
O=C(Nc1cccc(-c2ccnc3cc(-c4ccc(F)cc4)nn23)c1)c1cccc(C(F)(F)F)c1 [Example 139, N-{3-[2-(4-fluorophenyl)pyrazolo[1,5-a]pyrimidin-7-yl]phenyl}-3-(trifluoromethyl)benzamide]	> 10000	35			
O=Cc1cc(C=O)cc(-c2cnn3c(-c4cccc(NC(=O)c5cccc(C(F)(F)F)c5)c4)ccnc23)c1 [Example 310, N-{3-[3-(3,5-diformylphenyl)pyrazolo[1,5-a]pyrimidin-7-yl]phenyl}-3-(trifluoromethyl)benzamide]	> 10000	37			
Cc1ccc(C(=O)Nc2cccc(-c3ccnc4c(-c5ccncc5)cnn34)c2)cc1C(F)(F)F [Example 188, 4-methyl-N-[3-(3-pyridin-4-ylpyrazolo[1,5-a]pyrimidin-7-yl)phenyl]-3-(trifluoromethyl)benzamide]		86	300		
COc1ccc(C(=O)Nc2cccc(-c3ccnc4cc(-c5ccncc5)nn34)c2)cc1C(F)(F)F [Example 130, 4-methoxy-N-[3-(2-pyridin-4-ylpyrazolo[1,5-a]pyrimidin-7-yl)phenyl]-3-(trifluoromethyl)benzamide]	70	91			
O=C(Nc1cccc(-c2ccnc3c(-c4ccc(CN5CCCC5)o4)cnn23)c1)c1cccc(C(F)(F)F)c1 [Example 316, N-(3-{3-[5-(pyrrolidin-1-ylmethyl)-2-furyl]pyrazolo[1,5-a]pyrimidin-7-yl}phenyl)-3-(trifluoromethyl)benzamide]	541	92			
CCOC(=O)c1cnn2c(-c3cccc(NC(=O)Nc4ccc(F)c(Cl)c4)c3)ccnc12 [Example 25, ethyl 7-[3-({[(3-chloro-4-fluorophenyl)amino]carbonyl}amino)phenyl]pyrazolo[1,5-a]pyrimidine-3-carboxylate]	600	76			
CCOC(=O)c1cnn2c(-c3cccc(NC(=O)c4ccc(C)s4)c3)ccnc12 [Example 221, ethyl7-(3-{[(5-methyl-2-thienyl)carbonyl]amino}phenyl)pyrazolo[1,5-a]pyrimidine-3-carboxylate]	9700	65			
CCOC(=O)c1cnn2c(-c3cccc(NC(=O)Nc4cccc(Cl)c4)c3)ccnc12 [Example 80, Ethyl 7-[3-({[(3-chlorophenyl)amino]carbonyl}amino)phenyl]-pyrazolo[1,5-a]pyrimidine-3-carboxylate]		47			
CCOC(=O)c1cnn2c(-c3cccc(NC(=O)c4ccc(F)c(C(F)(F)F)c4)c3)ccnc12 [Example 2, ethyl 7-(3-{[4-fluoro-3-(trifluoromethyl)benzoyl]amino}phenyl)pyrazolo[1,5-a]pyrimidine-3-carboxylate]	17000	84			
CCOC(=O)c1cnn2c(-c3cccc(NC(=O)Nc4cc(C(F)(F)F)cc(C(F)(F)F)c4)c3)ccnc12 [Example 16, ethyl 7-{3-[({[3,5-bis(trifluoromethyl)phenyl]amino}carbonyl)amino]phenyl}pyrazolo[1,5-a]pyrimidine-3-carboxylate]	3780	31			
CCOC(=O)c1cnn2c(-c3cccc(NC(=O)Nc4ccccc4C(F)(F)F)c3)ccnc12 [Example 39, ethyl 7-{3-[({[2-(trifluoromethyl)phenyl]amino}carbonyl)amino]phenyl}pyrazolo[1,5-a]pyrimidine-3-carboxylate]	> 10000			14	
CC(O)c1cccc(-c2cnn3c(-c4cccc(NC(=O)c5cccc(C(F)(F)F)c5)c4)ccnc23)c1 (centres unmarked) [Example 304, N-(3-{3-[3-(1-hydroxyethyl)phenyl]pyrazolo[1,5-a]pyrimidin-7-yl}phenyl)-3-(trifluoromethyl)benzamide]	195	80			
CCOC(=O)c1cnn2c(-c3cccc(NC(=O)c4cc(C(C)(C)C)nn4C)c3)ccnc12 [Example 243, ethyl7-(3-{[(3-tert-butyl-1-methyl-1H-pyrazol-5-yl)carbonyl]amino}phenyl)pyrazolo[1,5-a]pyrimidine-3-carboxylate]	> 10000	18			
O=C(Nc1cccc(-c2ccnc3c(-c4ccncc4)cnn23)c1)Nc1ccc(F)c(C(F)(F)F)c1 [Example 193, N-[4-fluoro-3-(trifluoromethyl)phenyl]-N′-[3-(3-pyridin-4-ylpyrazolo[1,5-a]pyrimidin-7-yl)phenyl]urea]	500	79			
O=C(Nc1cccc(-c2ccnc3cc(N4CCNCC4)nn23)c1)c1cccc(C(F)(F)F)c1 [Example 208, N-[3-(2-piperazin-1-ylpyrazolo[1,5-a]pyrimidin-7-yl)phenyl]-3-(trifluoromethyl)benzamide]			6150		54

Now from value to molecule, other results behind:

IC50 [1] [nM]	inhibition at 10 µM [%]	IC50 [nM]	inhibition at 10 µM (single point assay, 10 uM) [%]	Molecule	% Inhib./10 uM (single point assay, 10 uM) [%]
> 10000	18			Cc1ccc(C(=O)Nc2cccc(-c3ccnc4c(-c5nn[nH]n5)cnn34)c2)cc1C(F)(F)F [Example 66, 4-methyl-N-{3-[3-(2H-tetrazol-5-yl)pyrazolo[1,5-a]pyrimidin-7-yl]phenyl}-3-(trifluoromethyl)benzamide]	
19	96			CN(C)CCCC(=O)Nc1ccc(-c2cnn3c(-c4cccc(NC(=O)c5cccc(C(F)(F)F)c5)c4)ccnc23)cc1 [Example 234, N-{3-[3-(4-{[4-(dimethylamino)butanoyl]amino}phenyl)pyrazolo[1,5-a]pyrimidin-7-yl]phenyl}-3-(trifluoromethyl)benzamide]	
> 10000				ethyl 7-{3-[({[(ethoxycarbonyl)phenyl]amino}carbonyl)amino]phenyl}pyrazolo[1,5-a]pyrimidine-3-carboxylate [Example 15]	0
> 10000	32			COC(=O)c1cccc(-c2cc3nccc(-c4cccc(NC(=O)c5cccc(C(F)(F)F)c5)c4)n3n2)c1 [Example 141, methyl 3-[7-(3-{[3-(trifluoromethyl)benzoyl]amino}phenyl)pyrazolo[1,5-a]pyrimidin-2-yl]benzoate]	
	95	180		Cc1ccc(C(=O)Nc2cccc(-c3ccnc4c(-c5ccc(N)cc5)cnn34)c2)cc1C(F)(F)F [Example 180, N-{3-[3-(4-aminophenyl)pyrazolo[1,5-a]pyrimidin-7-yl]phenyl}-4-methyl-3-(trifluoromethyl)benzamide]	
220	93			COc1ccc(C(=O)Nc2cccc(-c3ccnc4cc(N5CCOCC5)nn34)c2)cc1C(F)(F)F [Example 195, 4-methoxy-N-[3-(2-morpholin-4-ylpyrazolo[1,5-a]pyrimidin-7-yl)phenyl]-3-(trifluoromethyl)benzamide]	
410	81			CCOC(=O)c1cnn2c(-c3cc(NC(=O)c4cccc(C(F)(F)F)c4)ccc3[N+](=O)[O-])ccnc12 [Example 85, ethyl 7-(2-nitro-5-{[3-(trifluoromethyl)benzoyl]amino}phenyl)pyrazolo[1,5-a]pyrimidine-3-carboxylate]	
110	96			Cc1ccc(C(=O)Nc2cccc(-c3ccnc4cc(N5CCOCC5)nn34)c2)cc1C(F)(F)F [Example 194, 4-methyl-N-[3-(2-morpholin-4-ylpyrazolo[1,5-a]pyrimidin-7-yl)phenyl]-3-(trifluoromethyl)benzamide]	
120	96			O=C(Nc1cccc(-c2ccnc3cc(N4CCOCC4)nn23)c1)Nc1ccc(F)c(C(F)(F)F)c1 [Example 202, N-[4-fluoro-3-(trifluoromethyl)phenyl]-N′-[3-(2-morpholin-4-ylpyrazolo[1,5-a]pyrimidin-7-yl)phenyl]urea]	

Source: US20070219186A1, “Pyrazolo[1,5-A]pyrimidine derivatives and methods of use thereof” (priority 2006, published 2007)
